A melting point compilation (Tetko et al.; mined from patent text by program, amines drawn as free bases though some values may be those of a salt)

| melting point [°C] | SMILES |
| --- | --- |
| 178 to 191 | c1nc(Nc2ccc3[nH]ccc3c2)c2sc(-c3ccc(CNCCN4CCNCC4)cc3)cc2n1 |
| 215 to 217 | O=C(O)CCc1cccc(-c2nc(=O)c3ccc(F)cc3s2)n1 |
| 114 to 116 | CC(C)(C)OC(=O)N1CCc2c(n(CCCc3ccccc3)c3ccc(Cl)c(Cl)c23)CC1 |
| 164 | CN(C)CCCSc1ccc2ccc(N)nc2n1 |
| 96 to 98 | Cc1nc(C#CCCn2nc3ccccc3n2)sc1C |
| 133 to 135 | COC(=O)c1c(Cl)cc(Cl)cc1NC(=O)CSc1ccc(NC(=O)c2ccco2)cc1 |
| 94 to 95 | CCOC(=O)c1sc(Oc2ccc(F)cc2)c2c1CCc1cnn(C)c1-2 |
| 191 to 194 | CN(C)Cc1ccc2cc(NC(=O)c3ccc(-c4ccccc4)cc3)ccc2n1 |
| 218 to 220 | Nc1c(CC(=O)O)cccc1S(=O)(=O)c1ccccc1 |
| 76 to 79 | O=C1OC(CCCCl)CN1c1ccccc1 (stereo not given) |
| 144 to 145 | OC1c2cc(OCc3nc4cc(F)ccc4s3)ccc2OCC1Oc1ccccc1 (stereo not given) |
| 219 to 220 | O=c1[nH]c(COc2cccc(Cl)c2Cl)nc2nccnc12 |
| 143 to 144 | COc1ccc(-c2ccc(C=O)c3ccoc23)cc1 |
| 137 to 140 | CCOCCn1cc(C2CCN(CCOc3ccccc3C(=O)O)CC2)c2cccnc21 |
| 178 | O=C(c1cc(=O)c2cc(O)ccc2[nH]1)N1CCC(O)(Cc2ccccc2)CC1 |
| 226 to 228 | CN(C)C(=O)c1cnn(-c2c(Cl)cc(Cl)cc2Cl)c1N |
| 161 to 177 | COCC1CCCN1Cc1ccc(-c2cc3ncnc(Nc4ccc5[nH]ccc5c4)c3s2)cc1 (stereo not given) |
| 141 to 143 | COC(=O)c1cc(-c2ccc(OC)cc2)nn(CCC#N)c1=O |
| 126 to 128 | CSc1nc(OCCN2CCCC2=O)c(C#N)c(N2CCc3ccccc3CC2)n1 |
| 246 to 248 | Nc1ccc(Cn2c(=O)c3c(-c4noc(C5CC5)n4)ncn3c3ccccc32)cc1 |
| 201 | CC(C)(C)OC(=O)Nc1cc(N2CCOC2=O)c(-c2ccc(F)cc2)cc1[N+](=O)[O-] |

Second part, the molecule before the results:

| SMILES | melting point [°C] |
| --- | --- |
| C=C(C)C(=O)OCCCCCCOc1ccc(/C=C/C(=O)OC)cc1 | 45 to 50 |
| Nc1noc(-c2ccc(CN3CCCCCC3)s2)n1 | 135 to 136 |
| Cc1cc(C2=NOC(c3cc(Cl)cc(Cl)c3)(C(F)(F)F)C2)ccc1C(=O)NCC(F)(F)F (stereo not given) | 156 to 157 |
| O=C(Nc1ccc(O)cc1)C(=O)N1CCC(Cc2ccc(F)cc2)CC1 | 98 to 100 |
| COCC1CN(c2ccc(C3CCCCC3)c(N)c2)C(=O)O1 (racemic) | 130 to 132 |
| C=C(c1ccc(NC(=O)OC(C)(C)C)c(C)c1)C(F)(F)C(F)(F)C(F)(F)F | 50 to 53.5 |
| CC1=NN(CCN2CCOCC2)S(=O)(=O)c2sc(S(N)(=O)=O)cc21 | 160 to 162 |
| Clc1ccc(CNN2C=CN=CC2)cc1 | 86 to 87 |
| CN1CCN(c2cccc3c2C[C@H](NC(=O)C2CCCCC2)CC3)CC1 | 183 to 184 |
| CC(=O)C(=Cc1ccccc1)C(C)=O | 165 to 167 |
| O=C(/C=C/c1cccs1)Nc1ccc(-n2nc(C(F)(F)F)cc2C(F)(F)F)cc1 | 216 to 218 |
| O=C(Nc1ccncn1)NN1CC=CCC1 | 188 |
| CC(C)(C)C1CCc2c(c3ccccc3n2CC[N+]2([O-])CCCC2)C1 (stereo not given) | 163 to 165 |
| O=C1CCN(Cc2ccc(C(F)(F)F)cc2)CC1C(c1ccc(F)cc1)c1ccc(F)cc1 (stereo not given) | 126 to 127 |
| CC(C)(C)OC(=O)N1CCN(CCSc2nc3ccccc3[nH]2)CC1 | 175 to 176 |
| O=C(NC1CC1)[C@@H]1CN(C(=O)OCc2ccccc2)C[C@H]1O | 132 to 133 |
| CC(C)(C)OC(=O)N1CCC(=Cc2ccc3ccccc3n2)CC1 | 72 to 73 |
| CCCCCCCCCCCCCCCC(Br)CC(=O)O (stereo not given) | 47 to 51 |
| CC(C)C[C@H](NC(=O)N1CCCCCC1)C(=O)OCc1ccccc1 | 79 to 82 |
